# Where two headings read alike, the source gives them in different places. Marks after values point to notes of the source that are not given here.
# Experiments:
# [1] = tested on: Salmonella typhimurium TA100
# [2] = tested on: Salmonella typhimurium TA100; remark: listed apart in the source
# [3] = tested on: Salmonella typhimurium TA97a; settings: TA 97a, + S9, positive control 2-anthramine 1.25 μg/plate
# [4] = tested on: Salmonella typhimurium TA98; settings: TA 98, + S9, positive control 2-anthramine 1.25 μg/plate
# [5] = tested on: Salmonella typhimurium TA97a; settings: TA 97a, + S9, mutagen alone (Ctrol +), 2-AA 1.25 μg/plate
# V79 cells = experiment: Comet assay, genotoxicity in V79 cells; type: cell-based, Chinese hamster; design: Class 0 / Class 1 / Class 2 / Class 3: unit not given here; settings: for Class 0 / Class 1 / Class 2 / Class 3 / Score: 3 h
# Method: Chinese hamster lung fibroblasts (V79) were kindly supplied by Professor Cólus (Universidade Estadual de Londrina (UEL), Paraná, Brazil). Cells were maintained as monolayers in plastic culture flasks (25 cm^2) in HAM-F10 (Sigma-Aldrich) plus DMEM (Sigma-Aldrich, 1:1) culture medium supplemented with 10%; fetal bovine serum (Nutricell), antibiotics (0.01 mg mL^−1 streptomycin and 0.005 mg mL^−1 penicillin; Sigma-Aldrich) and 2.38 mg mL^−1 Hepes (Sigma-Aldrich), at 37°C in a BOD-type chamber. Under these conditions, the average cell cycle time was 12 h.
# HK was first dissolved in a mixture of methanol (100 μL) and distilled water (900 μL). The final concentration of methanol in the culture was 0.1%;. The choice of concentrations was based on the results of previous experiments with HK [12]. In the experiments, 3 × 10^5 cells (V79) were seeded into tissue-culture flasks, incubated for two cycles (24 h) in complete HAM-F10/DMEM medium, washed with phosphate buffer saline (PBS), and then subjected to one of the following treatments, in serum-free medium, for 3 h. To assess genotoxicity, the cells were treated with each concentration of HK alone, while for antigenotoxicity, they were treated with the mutagen DXR (0.3 μM) in combination with each HK concentration. Positive (DXR) and negative controls were also included in the test. At the end of the treatment, the cells were washed with ice-cold PBS and trypsinized with 200 μL trypsin. After 3 min, the cells were gently resuspended in complete medium and 20 μL of the cell suspension was immediately used for the test.
# The procedures described by Singh et al. were adopted, with minor modifications, as described in detail by Speit and Hartmann and reviewed by Burlinson et al.. Briefly, a microscope slide was covered with a base layer of 1.5%; normal-melting agarose (Invitrogen) and 20 μL of the test cells suspended in 120 μL 0.5%; low-melting agarose (Invitrogen) at 37°C was then spread over the base layer. A coverslip was added and the agarose allowed to solidify at 4°C for 15 min. Next, the coverslip was gently removed and the slides were immersed in freshly prepared lysing solution consisting of 89 mL stock solution (2.5 M NaCl, 100 mM EDTA, 10 mM Tris, pH 10.0, and 1%; sodium lauryl sarcosine), 10 mL DMSO and 1 mL Triton X-100, pH 10.0, at 4°C, for at least 20 h, protected from light. At the end of this period, the slides were transferred to an electrophoresis chamber containing a high pH (>13.0) buffer (300 mM NaOH, 1 mM EDTA) and incubated at 4°C for 20 min to allow the DNA to unwind. A current of 25 V (1.0 V cm^−1, 300 mA) was applied for 20 min. The slides were then submerged in a neutralization buffer (0.4 M Tris - HCl, pH 7.5) for 15 min, dried at room temperature and fixed in 100%; ethanol for 10 min.
# The slides were stained with 100 μL ethidium bromide (20 μg ml^−1) and covered with a coverslip. All the slides in the experiment were coded before analysis. The stained nucleoids were immediately evaluated at 1000x magnification under a Nikon fluorescence microscope fitted with a 515–560 nm excitation filter and a 590 nm barrier filter.
# For each treatment, the extent and distribution of DNA damage indicated by the comet assay were evaluated by examining 100 randomly selected and non-overlapping cells on the slides (i.e. 300 nucleoids per treatment). For each slide, the cells were visually scored and allocated to one of four classes (0, 1, 2 and 3), according to tail size, as follows: class 0, undamaged, no tail; class 1, a short tail whose length was smaller than the diameter of the comet head (nucleus); class 2, tail length between 1 and 2 times the diameter of the head; and class 3, maximally damaged: a long tail measuring more than twice the diameter of the head. The few comets containing no head and those with almost all DNA in the tail, or with a very wide tail, were excluded from the analysis since they may arise from dead cells. […]
# [6] = DXR 0.3 μM alone (positive control)
molecule,measurement,setting,value
"[N-]=[N+]=[N-].[Na+] [SA, sodium azide, reference compound]",Number of revertants(M ± SD)/ plate,[1],1219 + 46 revertants/plate
same,Number of revertants(M ± SD)/ plate,[2],1582 ± 98^c revertants/plate
"aflatoxin B1 [AFB1, reference compound]",Number of revertants(M ± SD)/ plate,[1],1607 + 79 revertants/plate
"Nc1ccc2cc3ccccc3cc2c1 [2-AA, 2-aminoanthracene, reference compound]",Number of revertants(M ± SD)/ plate,[3],1789 ± 89^e revertants/plate
same,Number of revertants(M ± SD)/ plate,[4],1567 ± 115^e revertants/plate
same,Number of revertants(M ± SD)/ plate,[5],1083 + 67 revertants/plate
same,Number of revertants(M ± SD)/ plate,"[2]; TA 100, + S9, positive control 2-anthramine 1.25 μg/plate",1456 ± 78^e revertants/plate
"COc1cccc2c1C(=O)c1c(O)c3c(c(O)c1C2=O)C[C@@](O)(C(=O)CO)C[C@@H]3O[C@H]1C[C@H](N)[C@H](O)[C@H](C)O1 [DXR, doxorubicin, reference compound]",Class 0,V79 cells; DXR 0.3 μM + MeOH 0.1%,46.3 ± 6.8
same,Class 1,V79 cells; DXR 0.3 μM + MeOH 0.1%,30.0 ± 6.0
same,Class 2,V79 cells; DXR 0.3 μM + MeOH 0.1%,16.3 ± 5.6
same,Class 3,V79 cells; DXR 0.3 μM + MeOH 0.1%,6.6 ± 3.0
same,Score,V79 cells; DXR 0.3 μM + MeOH 0.1%,83.3 ± 14.5^a
same,Class 0,V79 cells; [6],41.0 ± 12.0
same,Class 1,V79 cells; [6],36.0 ± 12.7
same,Class 2,V79 cells; [6],18.0 ± 2.0
same,Class 3,V79 cells; [6],4.0 ± 2.5
same,Score,V79 cells; [6],86.0 ± 11.5^a
same,rate of DNA damage relative to the negative control,"V79 cells; DXR 0.3 μM, V79 cells",significant increase in the rate of DNA damage

# Reference: PMC3545969, “Mutagenicity and antimutagenicity of (−)-hinokinin a trypanosomicidal compound measured by Salmonella microsome and comet assays” (BMC Complementary and Alternative Medicine, 2012)
